{
  "source": "patent US20150344426A1",
  "about": "“COMPOUNDS AND THERAPEUTIC USES THEREOF” (ALZHEIMER'S INSTITUTE OF AMERICA, INC., priority 2012, published 2015)",
  "test": "Stability in mouse liver microsomal preparations",
  "format": "in vitro ADME",
  "details": "liver microsomes, with and without 1 mM NADPH (not said which), read-out: Mouse Liver Microsomes t1/2",
  "method": "Relative stability of Example Compound Nos. 1 through 60 in mouse plasma and mouse liver microsomal preparations.\nCertain Example Compounds were each added to a final concentration of 1 μM to 1 mL of each of mouse plasma and mouse liver microsomal preparations (with and without 1 mM NADPH). Stability assays were run in duplicate and were sampled at 0, 5, 15, 30, 60 and 120 minutes as follows: one hundred microliter aliquots of samples were removed at the specified sampling times, and the reaction was quenched with 400 μL of acetonitrile.\nSamples were analyzed by HPLC-ESI-MS/MS by measuring the peak area of both the starting Example Compound and parent compound (i.e., either Parent Compound A or Parent Compound B) that were created by removal of the Prodrug Moiety (as defined in Section 6 herein).",
  "data": [
    {"smiles": "O=C(NCc1ccc[n+](COC(=O)c2ccccc2)c1)Nc1ccc(OCCc2ccccc2-c2ccccc2)cc1", "note": "[Example 35, 1-[(Benzoyloxy)methyl]-3-{[({4-[2-(biphenyl-2-yl)ethoxy]phenyl}carbamoyl)amino]methyl} pyridinium]", "values": [
      {"measurement": "half-life at 1 µM", "result": "< 5", "unit": "min"}
    ]}
  ]
}
